Assays:
JeKo-1 [1] = assay: Induction of apoptosis in human JeKo1 cells assessed as viable cells at 1 uM after 72 hrs by Annexin V-FITC/propidium iodide double staining based flow cytometry (reference value: 91.9%); type: functional; conditions: JeKo-1, 72 h, read-out: Activity
[2] = biological target: RAC-alpha serine/threonine-protein kinase (Homo sapiens, UniProt P31749); assay: Inhibition of AKT1 (unknown origin) using biotinylated-STK as substrate after 45 mins by HTRF assay
JVM-2 = assay: Antiproliferative activity against human JVM2 cells after 72 hrs by CellTiter Glo assay; type: functional, cell-based; conditions: JVM-2, 72 h
Maver1 = assay: Antiproliferative activity against human Maver1 cells after 72 hrs by CellTiter Glo assay; type: functional, cell-based; conditions: Maver1, 72 h
[3] = Antiproliferative activity against human SP49 cells after 72 hrs by CellTiter Glo assay; type: functional, cell-based
Z-138 = assay: Antiproliferative activity against human Z138 cells after 72 hrs by CellTiter Glo assay; type: functional, cell-based; conditions: Z-138, 72 h
[4] = Antiproliferative activity against human Mino cells after 72 hrs by CellTiter Glo assay; type: functional, cell-based
JeKo-1 [5] = assay: Antiproliferative activity against human JeKo1 cells after 72 hrs by CellTiter Glo assay; type: functional, cell-based; conditions: JeKo-1, 72 h
JeKo-1 [6] = assay: Induction of apoptosis in human JeKo1 cells assessed as viable cells at 0.5 uM after 48 hrs by Annexin V-FITC/propidium iodide double staining based flow cytometry (reference value: 91.1%); type: functional; conditions: JeKo-1, 48 h, read-out: Activity
JeKo-1 [7] = assay: Induction of apoptosis in human JeKo1 cells assessed as early apoptotic cells at 0.5 uM after 48 hrs by Annexin V-FITC/propidium iodide double staining based flow cytometry (reference value: 6.18%); type: functional
JeKo-1 [8] = assay: Induction of apoptosis in human JeKo1 cells assessed as late apoptotic cells at 0.5 uM after 48 hrs by Annexin V-FITC/propidium iodide double staining based flow cytometry (reference value: 1.9%); type: functional
JeKo-1 [9] = assay: Induction of apoptosis in human JeKo1 cells assessed as necrotic cells at 0.5 uM after 48 hrs by Annexin V-FITC/propidium iodide double staining based flow cytometry (reference value: 0.81%); type: functional
JeKo-1 [10] = assay: Induction of apoptosis in human JeKo1 cells assessed as viable cells at 1 uM after 48 hrs by Annexin V-FITC/propidium iodide double staining based flow cytometry (reference value: 91.1%); type: functional; conditions: JeKo-1, 48 h, read-out: Activity
JeKo-1 [11] = assay: Induction of apoptosis in human JeKo1 cells assessed as early apoptotic cells at 1 uM after 48 hrs by Annexin V-FITC/propidium iodide double staining based flow cytometry (reference value: 6.18%); type: functional
JeKo-1 [12] = assay: Induction of apoptosis in human JeKo1 cells assessed as late apoptotic cells at 1 uM after 48 hrs by Annexin V-FITC/propidium iodide double staining based flow cytometry (reference value: 1.9%); type: functional
JeKo-1 [13] = assay: Induction of apoptosis in human JeKo1 cells assessed as necrotic cells at 1 uM after 48 hrs by Annexin V-FITC/propidium iodide double staining based flow cytometry (reference value: 0.81%); type: functional
JeKo-1 [14] = assay: Induction of apoptosis in human JeKo1 cells assessed as viable cells at 5 uM after 48 hrs by Annexin V-FITC/propidium iodide double staining based flow cytometry (reference value: 91.1%); type: functional; conditions: JeKo-1, 48 h, read-out: Activity
JeKo-1 [15] = assay: Induction of apoptosis in human JeKo1 cells assessed as early apoptotic cells at 5 uM after 48 hrs by Annexin V-FITC/propidium iodide double staining based flow cytometry (reference value: 6.18%); type: functional
JeKo-1 [16] = assay: Induction of apoptosis in human JeKo1 cells assessed as late apoptotic cells at 5 uM after 48 hrs by Annexin V-FITC/propidium iodide double staining based flow cytometry (reference value: 1.9%); type: functional
JeKo-1 [17] = assay: Induction of apoptosis in human JeKo1 cells assessed as necrotic cells at 5 uM after 48 hrs by Annexin V-FITC/propidium iodide double staining based flow cytometry (reference value: 0.81%); type: functional
JeKo-1 [18] = assay: Induction of apoptosis in human JeKo1 cells assessed as viable cells at 1 uM after 24 hrs by Annexin V-FITC/propidium iodide double staining based flow cytometry (reference value: 91.9%); type: functional; conditions: JeKo-1, 24 h, read-out: Activity
JeKo-1 [19] = assay: Induction of apoptosis in human JeKo1 cells assessed as early apoptotic cells at 1 uM after 24 hrs by Annexin V-FITC/propidium iodide double staining based flow cytometry (reference value: 5.42%); type: functional
JeKo-1 [20] = assay: Induction of apoptosis in human JeKo1 cells assessed as late apoptotic cells at 1 uM after 24 hrs by Annexin V-FITC/propidium iodide double staining based flow cytometry (reference value: 2.06%); type: functional
JeKo-1 [21] = assay: Induction of apoptosis in human JeKo1 cells assessed as necrotic cells at 1 uM after 24 hrs by Annexin V-FITC/propidium iodide double staining based flow cytometry (reference value: 0.62%); type: functional
JeKo-1 [22] = assay: Induction of apoptosis in human JeKo1 cells assessed as viable cells at 1 uM after 48 hrs by Annexin V-FITC/propidium iodide double staining based flow cytometry (reference value: 91.9%); type: functional; conditions: JeKo-1, 48 h, read-out: Activity
JeKo-1 [23] = assay: Induction of apoptosis in human JeKo1 cells assessed as early apoptotic cells at 1 uM after 48 hrs by Annexin V-FITC/propidium iodide double staining based flow cytometry (reference value: 5.42%); type: functional
JeKo-1 [24] = assay: Induction of apoptosis in human JeKo1 cells assessed as late apoptotic cells at 1 uM after 48 hrs by Annexin V-FITC/propidium iodide double staining based flow cytometry (reference value: 2.06%); type: functional
JeKo-1 [25] = assay: Induction of apoptosis in human JeKo1 cells assessed as necrotic cells at 1 uM after 48 hrs by Annexin V-FITC/propidium iodide double staining based flow cytometry (reference value: 0.62%); type: functional
JeKo-1 [26] = assay: Induction of apoptosis in human JeKo1 cells assessed as early apoptotic cells at 1 uM after 72 hrs by Annexin V-FITC/propidium iodide double staining based flow cytometry (reference value: 5.42%); type: functional
JeKo-1 [27] = assay: Induction of apoptosis in human JeKo1 cells assessed as late apoptotic cells at 1 uM after 72 hrs by Annexin V-FITC/propidium iodide double staining based flow cytometry (reference value: 2.06%); type: functional
JeKo-1 [28] = assay: Induction of apoptosis in human JeKo1 cells assessed as necrotic cells at 1 uM after 72 hrs by Annexin V-FITC/propidium iodide double staining based flow cytometry (reference value: 0.62%); type: functional
JeKo-1 [29] = assay: Cell cycle arrest in human JeKo1 cells assessed as accumulation at G0/G1 phase at 0.5 uM after 24 hrs by propidium iodide staining based flow cytometry (reference value: 44.8%); type: functional
JeKo-1 [30] = assay: Cell cycle arrest in human JeKo1 cells assessed as accumulation at S phase at 0.5 uM after 24 hrs by propidium iodide staining based flow cytometry (reference value: 36.8%); type: functional
JeKo-1 [31] = assay: Cell cycle arrest in human JeKo1 cells assessed as accumulation at G2/M phase at 0.5 uM after 24 hrs by propidium iodide staining based flow cytometry (reference value: 18.4%); type: functional
JeKo-1 [32] = assay: Cell cycle arrest in human JeKo1 cells assessed as accumulation at G0/G1 phase at 1 uM after 24 hrs by propidium iodide staining based flow cytometry (reference value: 44.8%); type: functional
JeKo-1 [33] = assay: Cell cycle arrest in human JeKo1 cells assessed as accumulation at S phase at 1 uM after 24 hrs by propidium iodide staining based flow cytometry (reference value: 36.8%); type: functional
JeKo-1 [34] = assay: Cell cycle arrest in human JeKo1 cells assessed as accumulation at G2/M phase at 1 uM after 24 hrs by propidium iodide staining based flow cytometry (reference value: 18.4%); type: functional

Chain of RAC-alpha serine/threonine-protein kinase (P31749 whole entry): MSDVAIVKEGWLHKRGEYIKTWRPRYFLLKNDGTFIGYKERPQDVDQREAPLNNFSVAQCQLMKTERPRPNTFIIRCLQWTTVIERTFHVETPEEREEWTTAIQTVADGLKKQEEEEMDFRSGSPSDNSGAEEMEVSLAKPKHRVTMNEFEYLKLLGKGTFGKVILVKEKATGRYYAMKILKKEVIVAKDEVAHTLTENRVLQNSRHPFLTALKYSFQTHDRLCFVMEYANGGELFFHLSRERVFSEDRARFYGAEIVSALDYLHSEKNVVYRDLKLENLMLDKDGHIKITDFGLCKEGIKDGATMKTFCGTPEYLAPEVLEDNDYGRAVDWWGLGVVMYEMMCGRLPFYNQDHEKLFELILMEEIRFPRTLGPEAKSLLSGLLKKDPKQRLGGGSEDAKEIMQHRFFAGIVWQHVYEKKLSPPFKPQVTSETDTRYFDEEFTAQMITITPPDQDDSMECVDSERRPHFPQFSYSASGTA

O=C(N1CCN(c2ncnc3[nH]cc(Cl)c23)CC1)C1(c2ccc(Br)cc2)CCNCC1
viability at 1 µM (JeKo-1 [1]): 35.6%
IC50 [2]: 1.8 nM
IC50 (JVM-2): 700 nM
IC50 (Maver1): 300 nM
IC50 [3]: 1500 nM
IC50 (Z-138): 200 nM
IC50 [4]: 700 nM
IC50 (JeKo-1 [5]): 300 nM
viability at 0.5 µM (JeKo-1 [6]): 75.6%
Activity (JeKo-1 [7]): 15.4%
Activity (JeKo-1 [8]): 8.31%
Activity (JeKo-1 [9]): 0.7%
viability at 1 µM (JeKo-1 [10]): 49.1%
Activity (JeKo-1 [11]): 34%
Activity (JeKo-1 [12]): 16.6%
Activity (JeKo-1 [13]): 0.21%
viability at 5 µM (JeKo-1 [14]): 6.4%
Activity (JeKo-1 [15]): 70.1%
Activity (JeKo-1 [16]): 23%
Activity (JeKo-1 [17]): 0.43%
viability at 1 µM (JeKo-1 [18]): 69.7%
Activity (JeKo-1 [19]): 9.81%
Activity (JeKo-1 [20]): 20.4%
Activity (JeKo-1 [21]): 0.091%
viability at 1 µM (JeKo-1 [22]): 49.1%
Activity (JeKo-1 [23]): 34%
Activity (JeKo-1 [24]): 16.6%
Activity (JeKo-1 [25]): 0.21%
Activity (JeKo-1 [26]): 53.5%
Activity (JeKo-1 [27]): 10.7%
Activity (JeKo-1 [28]): 0.26%
Activity (JeKo-1 [29]): 46.1%
Activity (JeKo-1 [30]): 21.2%
Activity (JeKo-1 [31]): 32.7%
Activity (JeKo-1 [32]): 8.8%
Activity (JeKo-1 [33]): 18.8%
Activity (JeKo-1 [34]): 72.4%

O=C(N1CCN(c2ncnc3[nH]cc(Cl)c23)CC1)C1(c2ccc(Cl)cc2)CCNCC1
IC50 [2]: 1.9 nM

O=C(N1CCN(c2ncnc3[nH]ccc23)CC1)C1(c2ccc(Cl)c(Cl)c2)CCNCC1
IC50 [2]: > 40 nM

O=C(N1CCN(c2ncnc3[nH]cc(Br)c23)CC1)C1(c2ccc(Cl)cc2)CCNCC1
IC50 [2]: 1.5 nM
IC50 (JVM-2): 2300 nM
IC50 (Maver1): 1800 nM
IC50 [3]: 4700 nM
IC50 (Z-138): 1700 nM
IC50 [4]: 3500 nM
IC50 (JeKo-1 [5]): 1200 nM

O=C(N1CCN(c2ncnc3[nH]cc(Br)c23)CC1)C1(c2ccc(Cl)c(Cl)c2)CCNCC1
IC50 [2]: 4.3 nM

CC(C)(C)c1ccc(C2(C(=O)N3CCN(c4ncnc5[nH]ccc45)CC3)CCNCC2)cc1
IC50 [2]: > 40 nM

O=C(N1CCN(c2ncnc3[nH]ccc23)CC1)C1(c2ccc(Br)cc2)CCNCC1
IC50 [2]: 27.1 nM

O=C(N1CCN(c2ncnc3[nH]cc(Br)c23)CC1)C1(c2cccc(Br)c2)CCNCC1
IC50 [2]: 7.6 nM

O=C(N1CCN(c2ncnc3[nH]ccc23)CC1)C1(c2ccc(Cl)cc2)CCNCC1
IC50 [2]: 26.5 nM

O=C(N1CCN(c2ncnc3[nH]cc(Cl)c23)CC1)C1(c2ccc(Cl)c(Cl)c2)CCNCC1
IC50 [2]: 2.9 nM

O=C(Cc1ccc(Cl)cc1)N1CCN(c2ncnc3[nH]cc(Br)c23)CC1
IC50 [2]: 18 nM
IC50 (JVM-2): 9900 nM
IC50 (Maver1): 18500 nM
IC50 [3]: 7800 nM
IC50 (Z-138): 6800 nM
IC50 [4]: 18100 nM
IC50 (JeKo-1 [5]): 8700 nM

COc1ccc(C2(C(=O)N3CCN(c4ncnc5[nH]cc(Br)c45)CC3)CCNCC2)cc1
IC50 [2]: 14.1 nM

COc1ccc(C2(C(=O)N3CCN(c4ncnc5[nH]ccc45)CC3)CCNCC2)cc1
IC50 [2]: 35.6 nM

O=C(N1CCN(c2ncnc3[nH]cc(Cl)c23)CC1)C1(c2cccc(Br)c2)CCNCC1
IC50 [2]: 5.6 nM

O=C(N1CCN(c2ncnc3[nH]cc(Br)c23)CC1)C1(c2ccccc2)CCNCC1
IC50 [2]: 20.3 nM

CCn1c(-c2nonc2N)nc2c(C#CC(C)(C)O)ncc(OC[C@H]3CCCNC3)c21 [GSK-690693]
IC50 (JVM-2): 1600 nM
IC50 (Maver1): 5100 nM
IC50 [3]: 4800 nM
IC50 (Z-138): 3100 nM
IC50 [4]: 20800 nM
IC50 (JeKo-1 [5]): 3000 nM

— ChEMBL document CHEMBL4190265, “Structural optimization elaborates novel potent Akt inhibitors with promising anticancer activity” (Eur J Med Chem, 2017)
